≈ marks a conversion by molar mass, not a printed value. Where two headings read alike, the source gives them in different places.
Experiments:
Format in all cases: cell-based
[1] = test system: human lymphocytes; test: lymphocyte response to varied culture medium components
Experimental: Culture medium suitable for the growth of human lymphocytes is prepared as follows: To 50 ml of medium buffer 72 mg glucose is added, 1 ml amino acid supplement, 1 ml of a 16.5 mg/ml pyruvate: 2.64 mg/ml cysteine solution, 1 ml of a 1.4 mg/ml choline chloride; 1.8 mg/ml inositol solution, 1 ml of the above indicated vitamin supplement, and 1 ml of a 135 μg/ml adenine solution. The pH is adjusted with dilute NaOH to 7.6. Supplements of the following are then added: 1 ml of the antibiotic supplement, 0.5 ml of a 22.2 mg/ml calcium chloride solution, 0.5 ml of a 24 mg/ml magnesium sulfate solution, 1 ml of a solution of 0.278 mg/ml ferrous sulfate in 0.149 mg/ml EDTA. Deionized water is added to a final volume of 100 ml and the medium is filtered through Nalgene membrane filter units for sterilization. After filtration 0.2 ml of a 1 mg/ml sterile solution of phytohemagglutinin (PHA) is added to each 100 ml of media. PHA is obtained from Sigma Chemical Co. in 5 mg quantities and is diluted with sterile, deionized water.
Accordingly, a culture medium suitable for determining the growth or other responses of lymphocytes comprises a serum-free, buffered (pH 7.6) solution in deionized water comprises per liter of solution the following components as described in Table 1:
The components of the culture medium of Table 1 can be varied. In general, effective amounts of the components are used and can vary widely for the various growth assays of the invention and for individual patients. An effective amount of a component, as used herein, is an amount which will obtain a desired response from the patient. […] For most patients and assays the following ranges of components are satisfactory. The precise amounts of the components to provide an effective response can be determined by simple experimentation with the culture medium.
The following is an example of a lymphocyte assay: Previously sterilized 96 well microtiter plates (Corning) are used in this assay procedure. 0.2 milliliters of the culture medium is added to each well. Where necessary, variable supplements up to 10 μl may be added to each tube, or a smaller volume of an appropriately higher concentration of the medium can be added to the tubes and supplements then added to make a final volume of 0.2 ml. The assay is then inoculated with 10 μl of the diluted lymphocyte suspension (22,000 lymphocytes).
Incubation. The plates are incubated for 4 days at 37° C. in a 5% carbon dioxide atmosphere saturated with water vapor. […]
Harvesting. […] The filter papers are dried for 5 minutes in a drying oven at 120° C. and then counted on a Matrix 96 Beta Counter (Packard).

[2] = test system: human peripheral blood lymphocytes; test: lymphocyte growth inhibition assay ([3H]-thymidine incorporation) in chemically defined medium; details: for IC50: Homo sapiens, Lymphocyte, read-out: Amount Required to Inhibit Growth by 50%
Experimental: The medium is also described in the specification above. Various concentrations of amino acids can be used in the medium to determine the effect on growth or growth inhibition.
Human peripheral blood was collected from a group of patients in the clinic. […] Experiments were conducted in 96 well microtite plates. Triplicate samples were run in all experiments. […] For reversal of toxicity CoQ10 was added at a concentration of 0.5 μg/ml, and the patient's own plasma at a concentration of 0.1%. All chemicals were obtained from Sigma Chemical Corporation. […] Cells were then pulsed with 10 μl [^3H]-thymidine (0.29×10^-6M final concentration; specific activity […]). Twenty-four hours later, cells were harvested using an Inotech Cell Harvester. Radioactive incorporation was measured using a Packard Matrix 96 Beta Counter.

[3] = test system: human peripheral blood lymphocytes; test: reversal of Lipitor (statin) toxicity in the lymphocyte culture assay; details: Lipitor present; CoQ10 0.5 μg/ml, patient's own plasma 0.1%; all subjects
Description: The present invention also provides a composition comprised in the plasma that has the ability to ameliorate the toxicity of metabolic inhibitors such as the statins. […] It is contemplated that the plasma composition may comprise at least one peptide, a polypeptide, a protein or a small molecule which is associated with or bound to at least one peptide, polypeptide, or protein. The plasma composition may also comprise a lipid moiety, and/or a carbohydrate moiety and/or a nucleic acid component. As the plasma composition is heat-labile, it is contemplated to comprise at least one heat-labile peptide, polypeptide, or protein that may additionally be associated with or bound to at least one small molecule which may be a lipid moiety, and/or a carbohydrate moiety and/or a nucleic acid moiety.
The medium used in this study was the same as described previously (See U.S. Pat. No. 4,499,064, herein expressly incorporated by reference) except that the concentration the amino acids used was increased five fold. The medium is also described in the specification above. […]
Human peripheral blood was collected from a group of patients in the clinic. Lymphocytes were isolated as described (Shive, 1986), counted in a Coulter Counter, and inoculated into the medium at a concentration of 110,000 cells per ml. […] Radioactive incorporation was measured using a Packard Matrix 96 Beta Counter. […]

[4] = patients' lymphocytes, 4 days incubation then 24 h [3H]-thymidine pulse
[5] = at concentrations of up to 0.2 mg/ml

Nc1ncnc2nc[nH]c12 [Adenine]
concentration in culture medium that is toxic to lymphocytes ([1]; medium of Table 1, component varied): 135 µg/mL

[Al] [Aluminum]
Amount Required to Inhibit Growth by 50% [2, 4]: 0.005 mg/mL

Cn1c(=O)c2c(ncn2C)n(C)c1=O [Caffeine]
IC50 [2, 4]: 77.6 µg/mL (≈ 400 µM)

COC1=C(OC)C(=O)C(C/C=C(\C)CC/C=C(\C)CC/C=C(\C)CC/C=C(\C)CC/C=C(\C)CC/C=C(\C)CC/C=C(\C)CC/C=C(\C)CC/C=C(\C)CCC=C(C)C)=C(C)C1=O [CoQ10, Co enzyme Q10]
reversal of Lipitor toxicity [3]: offers some protection, but it is not totally effective alone

CN1C(=O)CN=C(c2ccccc2)c2cc(Cl)ccc21 [Diazepam]
IC50 [2]: 20 µg/mL (≈ 70.2 µM)

CCO [Ethanol]
IC50 [2, 4]: 10000 µg/mL (≈ 217000 µM)

O[C@H]1[C@H](O)[C@@H](O)[C@H](O)[C@@H](O)[C@H]1O [Inositol]
Emax at 0.018 µg/mL ([1]; Homo sapiens, Lymphocyte, inositol 0.018 mg/l in medium, read-out: lymphocyte response, % of maximal response): ~70%
Emax at 0.18 µg/mL ([1]; Homo sapiens, Lymphocyte, inositol 0.18 mg/l in medium, read-out: lymphocyte response, % of maximal response): 90 to 100%

NNC(=O)c1ccncc1 [Isoniazid]
IC50 [2, 4]: 548 µg/mL (≈ 4000 µM)

CC(C)c1c(C(=O)Nc2ccccc2)c(-c2ccccc2)c(-c2ccc(F)cc2)n1CC[C@@H](O)C[C@@H](O)CC(=O)O [Lipitor, Atorvastatin]
IC50 [2, 4]: < 0.1 µg/mL

CN(Cc1cnc2nc(N)nc(N)c2n1)c1ccc(C(=O)N[C@@H](CCC(=O)O)C(=O)O)cc1 [Methothrexate]
Amount Required to Inhibit Growth by 50% [2, 4]: <0.00002 mg/mL

CC[C@H](C)C(=O)O[C@H]1C[C@@H](C)C=C2C=C[C@H](C)[C@H](CC[C@@H]3C[C@@H](O)CC(=O)O3)[C@H]21 [Mevacor, Lovastatin]
IC50 [2, 4]: < 0.1 µg/mL

N[C@@H](CCC(=O)O)C(=O)[O-].[Na+] [Monosodium Glutamate]
IC50 [2]: 7500 µg/mL

CC[C@H](C)C(=O)O[C@H]1C[C@H](O)C=C2C=C[C@H](C)[C@H](CC[C@@H](O)C[C@@H](O)CC(=O)O)[C@H]21 [Pravachol, Pravastatin sodium]
IC50 [2, 4]: < 0.1 µg/mL

CC(=O)C(=O)O [Pyruvate]
concentration in culture medium that is toxic to lymphocytes ([1]; human, 4 days, pH 7.6): 1650 µg/mL

CC1=C(/C=C/C(C)=C/C=C/C(C)=C/CO)C(C)(C)CCC1 [Retanol]
IC50 [2, 4]: 0.5 µg/mL (≈ 1.75 µM)

O=C(O)c1ccccc1O [Salicylate]
Amount Required to Inhibit Growth by 50% [2, 4]: 0.005 mg/mL

Cn1c(=O)c2[nH]cnc2n(C)c1=O [Theophyline]
IC50 [2, 4]: 30 µg/mL (≈ 167 µM)

CCCC(CCC)C(=O)O [Valproic Acid (Depakote), Valproic Acid]
IC50 ([2]; patients' lymphocytes, 4 days incubation then 24 h [3H]-thymidine pulse, unit printed μg/ml): 0.4 to 1.2 µg/mL (≈ 2.77 to 8.32 µM)

CCC(C)(C)C(=O)O[C@H]1C[C@@H](C)C=C2C=C[C@H](C)[C@H](CC[C@@H]3C[C@@H](O)CC(=O)O3)[C@H]21 [Zocor, Simvastatin]
IC50 [2, 4]: < 0.1 µg/mL

N[C@H]1C(O)O[C@H](CO)[C@@H](O)[C@@H]1O (stereo partly drawn) [glucoseamine]
toxicity in lymphocytes [2, 5]: did not show toxicity

NCC1(CC(=O)O)CCCCC1 [neuronton]
toxicity in lymphocytes [2, 5]: did not show toxicity

CCC1(c2ccccc2)C(=O)NC(=O)NC1=O [phenobarbitol]
toxicity in lymphocytes [2]: did not show toxicity

Cc1nnc2n1-c1ccc(Cl)cc1C(c1ccccc1Cl)=NC2 [triazolam]
toxicity in lymphocytes [2]: did not show toxicity

Reference: patent US6723527B2, “Methods for determining toxicity reversing agents” (Board of Regents, The University of Texas System, priority 2001, dated 2004)
